From patent publication US7459284B2, “Chemiluminescent acridinium compounds and analogues thereof as substrates of hydrolytic enzymes” (Siemens Healthcare Diagnostics Inc., priority 1999, dated 2008)

Legend:
[1] = Light emission spectra by Fast Spectral Scanning System (FSSS); type: physicochemical
Protocol: The light emission spectra of compounds 1˜12 and 15˜18 were determined by a Fast Spectral Scanning System (FSSS) of Photo Research (a division of Kollmorgen Corp.) of Burbank, Calif., U.S.A. The experiment was carried out in a dark room. Each compound was dissolved in acetonitrile or N,N-dimethylformamide. The resulting concentrate was diluted with the same solvent to form the working solution, which upon flashing gave a light emission with an adequate intensity. A typical experiment utilized 10˜100 μg or more of the sample in 500 μl of the solvent contained in a 13×100 mm borosilicate test tube. The tube was placed on a test tube rack raised to a proper height. A piece of aluminum foil was placed on the back of the tube to enhance the detectability of the emitted light. The FSSS optical head was placed in front of the tube at an approximate distance of about 130 mm with its lens focused on the liquid in the tube. The sample solution was first treated with 0.35 ml of the Flashing Reagent #1 (Bayer Diagnostics) containing 0.1 N HNO3 and 0.5% H2O2. The room was then darkened, and 0.35 ml of the Flashing Reagent #2 (Bayer Diagnostics) containing 0.25 N NaOH and 0.5% ARQUAD was added to the reaction mixture immediately. (See U.S. Pat. No. 4,927,769, which is commonly assigned and incorporated herein by reference.) The light which was generated instantaneously following the addition of the Reagent #2 was recorded by FSSS for 5 seconds starting from about one second before the Reagent #2 was added.

[2] = target: T1, alkaline phosphatase (Bos taurus, UniProt P19111); assay: Alkaline phosphatase assay using 4′-Phos-AE (17) as chemiluminescent substrate; type: biochemical; details: 0.1 mM substrate, pH 9 Tris, 3-4 hours room temperature; 0.1 ml reaction volume; measuring time 0.3 s
T1 sequence (P19111 20-506): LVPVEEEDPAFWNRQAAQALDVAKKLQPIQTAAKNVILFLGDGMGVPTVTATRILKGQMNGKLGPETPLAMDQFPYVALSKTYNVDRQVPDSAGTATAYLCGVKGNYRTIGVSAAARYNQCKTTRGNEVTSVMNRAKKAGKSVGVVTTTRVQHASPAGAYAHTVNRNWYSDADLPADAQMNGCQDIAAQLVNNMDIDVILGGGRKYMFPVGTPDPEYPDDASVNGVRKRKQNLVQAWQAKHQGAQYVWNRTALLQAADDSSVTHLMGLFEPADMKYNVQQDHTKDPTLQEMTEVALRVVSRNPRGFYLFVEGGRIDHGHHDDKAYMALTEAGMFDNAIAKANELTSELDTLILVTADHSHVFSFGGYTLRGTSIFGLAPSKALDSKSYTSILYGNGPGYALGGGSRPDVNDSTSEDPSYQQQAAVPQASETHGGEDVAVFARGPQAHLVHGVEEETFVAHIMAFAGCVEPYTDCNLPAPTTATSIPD
Protocol: Treatment of a solution of 4′-Phos-AE (17, 0.1 mM,) in 100 mM Tris pH 9, 1 mM MgCl2 with varying concentrations of alkaline phosphatase was carried out. The reactions were incubated for 3-4 hours at room temperature and were then sequentially diluted 10^4-fold into ‘flash buffer’ which contains 10 mM phosphate pH 8 with 150 mM NaCl, 0.1% BSA and 0.05% sodium azide. Chemiluminescence of a 25 μL solution was measured on a Bayer Diagnostics' Magic Lite Ananlyzer (MAL1) equipped with a BG38 filter. A measuring time of 0.3 s was employed. Evaluation of the chemiluminescent activity of the reactions indicated a steady decrease in total chemiluminesence with increasing concentrations of enzyme. Thus, as the concentration of enzyme is increased, a greater proportion of the fast-emitting substrate 4′-Phos-AE is converted to the slow-emitting product 4′-OH-AE (18) leading to an overall decrease in light output (at a short measuring time). Alkaline phosphatase was easily detected at 5×10^−17 moles (0.1 ml reaction volume) in this assay.

[3] = target: T1, alkaline phosphatase; assay: Enzymatic conversion of substrate by alkaline phosphatase (HPLC analysis); type: biochemical; details: alkaline aqueous medium; about 1 hour
Protocol: A 1 mM DMF solution of the acridinium 3-enol-phosphate (13) was mixed with 150 μL of 100 mM Tris pH 9 also containing 1 mM MgCl2. Alkaline phosphatase (5 μl of a 2 mg/ml solution) was added and the reaction was incubated at room temperature for ˜1 hour. […] The product was isolated by semi-preparative HPLC using a 7.8×300 mm, C18 column. MALDI-TOF MS of the product indicated this was indeed the keto product (14): m/z 521.36 obs. (520.56 calc.).
A 20 μL DMF solution of the acridan (15) (1.7 mM) was combined with 180 μl of 0.15 M 2-amino-2-methyl-1-propanol pH 10.3 also containing 1 mM magnesium acetate. A clear blue solution was obtained (0.17 mM substrate), which was then treated with alkaline phosphatase (10^−10 moles). The blue color was discharged instantly. […] The reaction mixture was then evaluated by the FSSS to determine the light emission spectrum of the product, which is shown in FIG. 2N. The product was isolated by semi-preparative HPLC. […] (521.56 calc.).

[4] = Light emission kinetics of substrate vs product; type: physicochemical; details: short measuring times (0.5-0.3 s)
Source text: One of the more preferred chemiluminescent acridinium substrates of Formula XIII is compound 4′-Phos-AE (17).

C[n+]1c2ccccc2c(C(=O)Oc2ccc(OP(=O)(O)O)cc2)c2ccccc21 [Compound 17, 4′-phosphophenyl 10-methyl acridinium-9-carboxylate trifluoromethanesulfonate]
Emission Maximum ([1]; FSSS, hydrogen peroxide in strong alkaline solution): 436 nm | Emission Range ([1]; spectral region with signal intensity above 5% of peak height, FSSS scanning limit 380-780 nm, flashed with 0.1 N HNO3/0.5% H2O2 then 0.25 N NaOH/0.5% ARQUAD): 410-540 nm | level of alkaline phosphatase detected [2]: 5e-17 mol | conversion by alkaline phosphatase [3]: readily converted | speed of light emission relative to product 18 [4]: ~190 times
